In BindingDB's records for doi:10.1021/jm0003440 (Merck Frosst Centre For Therapeutic Research, 2001) one finds IC50 data, which are given here for 1 compound.

Structures are written as SMILES.

The experiment can be described thus: Inhibitory activity tested against Human Cathepsin K receptor using bone resorption assay.

`N#CN1CCC(NC(=O)OCc2ccccc2)C1` (stereo unspecified) [(1-Cyano-pyrrolidin-3-yl)-carbamic acid benzyl ester] registered an IC50 of 1410 nM.
